# Reference: patent publication US9765069B2, “Antimicrobial compounds” (OXFORD UNIVERSITY INNOVATION LIMITED, priority 2012, dated 2017)
# What was measured:
# [1] = tested on: S1; experiment: MIC determination (bacteria), strain S1; assay type: cell-based, S. aureus; settings: 2-fold broth dilution
# Procedure: (§1) MIC determination (bacteria); MICs were determined based on Clinical and Laboratory Standards Institute (CLSI) methodology (Methods for dilution antimicrobial susceptibility tests for bacteria that grow aerobically; Approved Standard—seventh edition. 2006, M7-A7, CLSI, Wayne Pa.) by a 2-fold broth dilution technique in Mueller Hinton (pH7.4 Biorad). For S. pneumoniae, the medium was supplemented with 2.5% laked horse blood. For H. influenzae, the medium was haemophilus test medium (H.T.M.). Overnight cultures were diluted to obtain the final inoculum of 10^5 cfu/well. Incubation was 37° C. overnight in ambient air. The MIC was defined as the lowest concentration which inhibited all visual growth and expressed in μg/ml. For each bacterial species, all of the molecules were tested in the same experiment in order to give a head-to-head comparison.
# [2] = tested on: S26; experiment: MIC determination (bacteria), strain S26; assay type: cell-based, S. aureus; settings: 2-fold broth dilution
# Procedure: as §1
# [3] = tested on: S4; experiment: MIC determination (bacteria), strain S4; assay type: cell-based, S. aureus; settings: 2-fold broth dilution
# Procedure: as §1
# [4] = tested on: S2 (S. aureus 2, MRSA in vivo); experiment: MIC determination (bacteria), strain S2; assay type: cell-based; settings: 2-fold broth dilution
# Procedure: as §1
# [5] = tested on: E1; experiment: MIC determination (bacteria), strain E1; assay type: cell-based, enterococcus; settings: 2-fold broth dilution
# Procedure: as §1
# [6] = tested on: E2; experiment: MIC determination (bacteria), strain E2; assay type: cell-based, enterococcus; settings: 2-fold broth dilution
# Procedure: as §1
# [7] = tested on: P1; experiment: MIC determination (bacteria), strain P1; assay type: cell-based, S. pneumoniae; settings: 2-fold broth dilution
# Procedure: as §1
# [8] = tested on: P9; experiment: MIC determination (bacteria), strain P9; assay type: cell-based, S. pneumoniae; settings: 2-fold broth dilution
# Procedure: as §1
# [9] = tested on: P9B; experiment: MIC determination (bacteria), strain P9B; assay type: cell-based, S. pneumoniae; settings: 2-fold broth dilution
# Procedure: as §1
# [10] = tested on: H3; experiment: MIC determination (bacteria), strain H3; assay type: cell-based, H. influenzae; settings: haemophilus test medium
# Procedure: as §1
# [11] = tested on: H4; experiment: MIC determination (bacteria), strain H4; assay type: cell-based, H. influenzae; settings: haemophilus test medium
# Procedure: as §1
# [12] = target: E. Coli RNAP (Escherichia coli, UniProt P0A8T7+P0A8V2); experiment: In vitro activity against E. Coli RNAP; assay type: biochemical
# Sequence of E. Coli RNAP (P0A8V2 whole entry): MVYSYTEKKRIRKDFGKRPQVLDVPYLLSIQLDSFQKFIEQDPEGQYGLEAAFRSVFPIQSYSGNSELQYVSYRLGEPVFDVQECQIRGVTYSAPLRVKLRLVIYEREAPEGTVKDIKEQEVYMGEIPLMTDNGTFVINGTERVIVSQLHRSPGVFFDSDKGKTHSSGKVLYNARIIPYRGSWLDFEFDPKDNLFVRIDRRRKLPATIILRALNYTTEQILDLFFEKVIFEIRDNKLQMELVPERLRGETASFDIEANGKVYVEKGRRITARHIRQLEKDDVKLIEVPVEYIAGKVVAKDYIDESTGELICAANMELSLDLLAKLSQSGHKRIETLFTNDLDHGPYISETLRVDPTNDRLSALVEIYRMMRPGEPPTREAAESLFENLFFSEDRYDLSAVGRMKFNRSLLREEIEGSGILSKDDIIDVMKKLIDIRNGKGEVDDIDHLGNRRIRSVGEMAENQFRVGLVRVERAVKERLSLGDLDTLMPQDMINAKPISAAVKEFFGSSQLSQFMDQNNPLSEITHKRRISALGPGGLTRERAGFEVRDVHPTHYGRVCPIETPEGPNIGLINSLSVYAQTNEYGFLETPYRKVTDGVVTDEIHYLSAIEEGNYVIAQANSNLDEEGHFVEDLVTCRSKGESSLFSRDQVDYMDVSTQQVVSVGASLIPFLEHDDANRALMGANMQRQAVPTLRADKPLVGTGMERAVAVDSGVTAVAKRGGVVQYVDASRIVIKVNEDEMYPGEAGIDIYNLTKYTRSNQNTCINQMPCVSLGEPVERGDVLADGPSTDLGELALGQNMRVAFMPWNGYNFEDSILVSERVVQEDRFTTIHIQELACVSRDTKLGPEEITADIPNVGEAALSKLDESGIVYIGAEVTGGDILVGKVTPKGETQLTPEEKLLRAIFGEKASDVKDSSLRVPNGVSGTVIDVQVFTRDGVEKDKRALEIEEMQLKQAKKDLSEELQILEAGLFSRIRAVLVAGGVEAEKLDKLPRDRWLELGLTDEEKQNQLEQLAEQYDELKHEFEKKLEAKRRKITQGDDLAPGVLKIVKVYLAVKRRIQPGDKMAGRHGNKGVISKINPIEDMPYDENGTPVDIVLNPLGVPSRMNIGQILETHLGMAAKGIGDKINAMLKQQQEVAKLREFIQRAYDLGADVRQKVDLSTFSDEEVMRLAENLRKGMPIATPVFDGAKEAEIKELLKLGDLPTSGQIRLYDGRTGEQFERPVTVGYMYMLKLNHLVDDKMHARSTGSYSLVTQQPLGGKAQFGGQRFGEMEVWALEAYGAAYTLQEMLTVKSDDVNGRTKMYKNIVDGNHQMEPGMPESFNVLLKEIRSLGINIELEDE
# Sequence of E. Coli RNAP (P0A8T7 whole entry): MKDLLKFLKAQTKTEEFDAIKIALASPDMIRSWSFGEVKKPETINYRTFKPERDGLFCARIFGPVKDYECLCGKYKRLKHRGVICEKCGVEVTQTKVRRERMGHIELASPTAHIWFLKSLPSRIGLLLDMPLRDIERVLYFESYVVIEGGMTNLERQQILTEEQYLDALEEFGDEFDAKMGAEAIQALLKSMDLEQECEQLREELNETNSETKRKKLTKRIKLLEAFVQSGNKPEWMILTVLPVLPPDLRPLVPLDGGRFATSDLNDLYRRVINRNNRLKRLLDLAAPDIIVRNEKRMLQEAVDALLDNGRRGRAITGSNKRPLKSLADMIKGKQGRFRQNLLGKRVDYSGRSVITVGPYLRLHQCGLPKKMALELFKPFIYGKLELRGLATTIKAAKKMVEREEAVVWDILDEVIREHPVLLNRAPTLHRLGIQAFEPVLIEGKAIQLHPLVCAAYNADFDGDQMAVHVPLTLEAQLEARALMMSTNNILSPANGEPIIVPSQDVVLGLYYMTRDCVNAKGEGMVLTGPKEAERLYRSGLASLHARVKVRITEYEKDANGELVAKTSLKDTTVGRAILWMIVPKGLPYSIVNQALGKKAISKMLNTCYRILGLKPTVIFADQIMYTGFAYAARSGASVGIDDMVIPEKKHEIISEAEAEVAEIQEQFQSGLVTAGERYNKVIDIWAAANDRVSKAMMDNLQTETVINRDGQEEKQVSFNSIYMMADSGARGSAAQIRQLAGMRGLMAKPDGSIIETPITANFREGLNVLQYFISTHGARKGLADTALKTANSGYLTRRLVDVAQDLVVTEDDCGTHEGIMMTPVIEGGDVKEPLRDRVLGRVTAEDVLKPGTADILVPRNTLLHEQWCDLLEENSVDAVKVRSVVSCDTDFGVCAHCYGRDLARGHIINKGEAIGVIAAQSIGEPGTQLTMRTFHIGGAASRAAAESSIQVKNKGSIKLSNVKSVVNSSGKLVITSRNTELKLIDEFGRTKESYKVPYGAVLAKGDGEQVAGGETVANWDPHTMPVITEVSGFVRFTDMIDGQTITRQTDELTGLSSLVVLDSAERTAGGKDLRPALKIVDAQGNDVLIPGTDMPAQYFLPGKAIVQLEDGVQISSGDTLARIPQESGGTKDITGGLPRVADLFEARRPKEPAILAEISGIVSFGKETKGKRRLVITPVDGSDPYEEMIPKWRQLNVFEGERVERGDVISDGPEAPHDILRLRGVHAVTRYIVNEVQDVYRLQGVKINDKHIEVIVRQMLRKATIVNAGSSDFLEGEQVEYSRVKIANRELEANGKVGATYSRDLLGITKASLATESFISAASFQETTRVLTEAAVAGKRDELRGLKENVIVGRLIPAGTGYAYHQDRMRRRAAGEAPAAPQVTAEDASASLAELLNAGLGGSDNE
# Sequence of E. Coli RNAP (P0A7Z4 whole entry partner): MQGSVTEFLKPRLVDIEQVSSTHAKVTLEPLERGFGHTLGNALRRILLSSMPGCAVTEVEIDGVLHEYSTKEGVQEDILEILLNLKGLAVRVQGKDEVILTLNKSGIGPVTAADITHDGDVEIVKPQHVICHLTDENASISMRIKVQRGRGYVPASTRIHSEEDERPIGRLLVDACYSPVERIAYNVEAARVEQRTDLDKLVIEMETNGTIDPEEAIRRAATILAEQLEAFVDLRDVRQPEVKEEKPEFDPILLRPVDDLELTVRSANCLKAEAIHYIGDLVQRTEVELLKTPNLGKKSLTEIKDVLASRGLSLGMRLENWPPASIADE
# Sequence of E. Coli RNAP (P0A800 whole entry partner): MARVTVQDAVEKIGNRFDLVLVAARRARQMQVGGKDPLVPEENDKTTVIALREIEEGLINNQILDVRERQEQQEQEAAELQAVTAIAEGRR
# Source text: (§2) These properties can be determined according to techniques that are well known in the art.
# [13] = tested on: S. aureus membrane; experiment: In vitro activity in depolarization of S. aureus membrane; assay type: cell-based; settings: read-out: DEP (IC50)
# Source text: as §2
# [14] = tested on: mammalian_red blood cell membrane; experiment: In vitro mammalian red blood cell membrane lysis activity; assay type: cell-based; settings: Active or inactive at 100 μM
# Source text: as §2
# [15] = tested on: human embryonic kidney 293 cells; experiment: in vitro toxicities against human embryonic kidney 293 cells; assay type: cell-based; settings: human embryonic kidney 293 cells
# Source text: as §2
# [16] = tested on: human peripheral blood cells; experiment: in vitro toxicities human peripheral blood cells; assay type: cell-based; settings: human peripheral blood cells
# Source text: as §2
# [17] = aqueous solubility at pH 7.4; assay type: physicochemical; settings: aqueous solubility at pH 7.4 (water with 2% DMSO)
# Source text: as §2
Structure (SMILES),MIC S1 ([1]; Table 1),MIC S26 ([2]; Table 1),MIC S4 ([3]; Table 1),IC50 [12],IC50 [13],RBC membrane lysis activity (active/inactive) [14],"Hek293 (LD50, μM) [15]","PMBC (LD50, μM) [16]",SOL [17],MIC S1 ([1]; Table 2),MIC S26 ([2]; Table 2),MIC S4 ([3]; Table 2),MIC S2 ([4]; Table 2),MIC E1 ([5]; Table 2),MIC E2 ([6]; Table 2),MIC P1 ([7]; Table 2),MIC P9 ([8]; Table 2),MIC P9B ([9]; Table 2),MIC H3 ([10]; Table 2),MIC H4 ([11]; Table 2 and its footnote f),also measured
CCCCCCCCCC(O)=C1C(=O)CCN(C(=O)c2ccccc2)C1=O [25a],2 µg/mL,4 µg/mL,2 µg/mL,> 100 µM,83.6 µM,Inactive^d,>90.9 µM,>90.9 µM,>300 µM,–,–,–,–,–,–,–,–,–,–,–,MIC S2 ([4]; Table 1): 4 µg/mL; MIC E1 ([5]; Table 1): 2 µg/mL; MIC E2 ([6]; Table 1): 4 µg/mL; MIC P1 ([7]; Table 1): 0.5 µg/mL; MIC P9 ([8]; Table 1): 0.5 µg/mL; MIC P9B ([9]; Table 1): 4 µg/mL; MIC H3 ([10]; Table 1): 16 µg/mL; MIC H4 ([11]; Table 1): 8 µg/mL
CCCCCCCCCCCC(O)=C1C(=O)CCN(C(=O)c2ccccc2)C1=O [25b],0.5 µg/mL,1 µg/mL,0.5 µg/mL,86 µM,94.4 µM,Inactive^d,>90.9 µM,>90.9 µM,>300 µM,–,–,–,–,–,–,–,–,–,–,–,MIC S2 ([4]; Table 1): 0.5 µg/mL; MIC E1 ([5]; Table 1): 0.25 µg/mL; MIC E2 ([6]; Table 1): 0.5 µg/mL; MIC P1 ([7]; Table 1): 0.25 µg/mL; MIC P9 ([8]; Table 1): 0.25 µg/mL; MIC P9B ([9]; Table 1): 1 µg/mL; MIC H3 ([10]; Table 1): 8 µg/mL; MIC H4 ([11]; Table 1): 4 µg/mL
CCCCCCCCCC(O)=C1C(=O)CCN(C(=O)c2ccc(OC)cc2)C1=O [25d],8 µg/mL,8 µg/mL,4 µg/mL,–,69 µM,Active,90.9 µM,90.9 µM,150 to 300 µM,–,–,–,–,–,–,–,–,–,–,–,MIC S2 ([4]; Table 1): 4 µg/mL; MIC E1 ([5]; Table 1): 4 µg/mL; MIC E2 ([6]; Table 1): 4 µg/mL; MIC P1 ([7]; Table 1): 2 µg/mL; MIC P9 ([8]; Table 1): 2 µg/mL; MIC P9B ([9]; Table 1): 8 µg/mL; MIC H3 ([10]; Table 1): 64 µg/mL; MIC H4 ([11]; Table 1): 8 µg/mL
CCCCCCC(=O)N1CC(=O)C(=C(O)CCCC2CCCCC2)C1=O [27c],–,–,–,> 100 µM,> 100 µM,–,30.3 µM,90.9 µM,>200 µM,0.25 µg/mL,1 µg/mL,0.5 µg/mL,1 µg/mL,0.5 µg/mL,0.12 µg/mL,0.12 µg/mL,<0.06 µg/mL,2 µg/mL,2 µg/mL,1 µg/mL,–
CCCCCCC(=O)N1CC(=O)C(=C(O)CC(C)CC(C)(C)C)C1=O (centres unmarked) [27h],–,–,–,> 100 µM,–,–,30.3 µM,90.9 µM,150 to 300 µM,0.25 µg/mL,0.5 µg/mL,0.5 µg/mL,0.5 µg/mL,0.25 µg/mL,0.25 µg/mL,<0.06 µg/mL,<0.06 µg/mL,1 µg/mL,2 µg/mL,2 µg/mL,–
CCCCCCC(=O)N1CC(=O)C(=C(O)CCCOc2ccc(Cl)cc2C)C1=O [28h],–,–,–,33 µM,–,–,30.3 µM,90.9 µM,>300 µM,1 µg/mL,4 µg/mL,4 µg/mL,2 µg/mL,0.5 µg/mL,0.5 µg/mL,0.5 µg/mL,0.5 µg/mL,4 µg/mL,8 µg/mL,4 µg/mL,–
CC(C)CC1C(=O)C(=C(O)CCCCCc2ccccc2)C(=O)N1C(=O)c1ccccc1 (centres unmarked) [30a],–,–,–,–,> 100 µM,Inactive^d,>90.9 µM,90.9 µM,>300 µM,2 µg/mL,4 µg/mL,2 µg/mL,2 µg/mL,2 µg/mL,2 µg/mL,1 µg/mL,1 µg/mL,4 µg/mL,>64 µg/mL,8 µg/mL,–
"CNC(=O)[C@@H](C)[C@H]1C(=O)/C(=C(O)/C=C/C(C)=C/[C@@H](C)[C@H]2O[C@@]3(C)O[C@H](C=C[C@@]34CO4)[C@@H]2C)C(=O)N1[C@@H]1CC[C@H](O)[C@H](C)O1 [streptolydigin, reference compound]",–,–,–,38 µM,–,–,–,–,–,–,–,–,–,–,–,–,–,–,–,–,–
